Measurements published in article PMC3961306, “Comparison of the Cancer Gene Targeting and Biochemical Selectivities of All Targeted Kinase Inhibitors Approved for Clinical Use” (PLoS ONE, 2014).

Legend:
Assay in all cases: Kinase profiling in a biochemical assay panel (mobility shift assays and ELISA), %-inhibition at 1 μM; selectivity entropy
[1] = target: T1, panel of more than 300 wild-type and mutant kinases (313 kinase panel) (Homo sapiens, UniProt P00540); conditions: kinase MOS; 1 μM
T1 sequence (P00540 1-346): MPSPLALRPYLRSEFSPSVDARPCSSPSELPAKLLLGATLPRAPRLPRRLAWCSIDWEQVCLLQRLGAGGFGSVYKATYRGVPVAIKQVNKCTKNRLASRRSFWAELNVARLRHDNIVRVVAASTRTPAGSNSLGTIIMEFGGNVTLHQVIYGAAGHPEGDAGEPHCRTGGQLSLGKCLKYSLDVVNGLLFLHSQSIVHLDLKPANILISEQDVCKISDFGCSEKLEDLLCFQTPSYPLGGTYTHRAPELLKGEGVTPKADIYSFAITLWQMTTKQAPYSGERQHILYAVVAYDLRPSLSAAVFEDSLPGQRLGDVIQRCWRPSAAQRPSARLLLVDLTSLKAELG

[2] = target: panel of more than 300 wild-type and mutant kinases (313 kinase panel) (Homo sapiens, UniProt P04629)
[3] = target: panel of more than 300 wild-type and mutant kinases (313 kinase panel) (Homo sapiens, UniProt P07333)
[4] = target: panel of more than 300 wild-type and mutant kinases (313 kinase panel) (Homo sapiens, UniProt P07949)
[5] = target: panel of more than 300 wild-type and mutant kinases (313 kinase panel) (Homo sapiens, UniProt P16234, T674I)
[6] = target: panel of more than 300 wild-type and mutant kinases (313 kinase panel) (Homo sapiens, UniProt P17252); conditions: kinase PKCα; 1 μM
[7] = target: panel of more than 300 wild-type and mutant kinases (313 kinase panel) (Homo sapiens, UniProt P17948); conditions: kinase FLT1; compound at 1 μM
[8] = target: panel of more than 300 wild-type and mutant kinases (313 kinase panel) (Homo sapiens, UniProt P19784)
[9] = target: panel of more than 300 wild-type and mutant kinases (313 kinase panel) (Homo sapiens, UniProt P21802)
[10] = target: panel of more than 300 wild-type and mutant kinases (313 kinase panel) (Homo sapiens, UniProt P41240)
[11] = target: panel of more than 300 wild-type and mutant kinases (313 kinase panel) (Homo sapiens, UniProt P50613); conditions: kinase CDK7/CycH/MAT1; 1 μM compound
[12] = target: T2, panel of more than 300 wild-type and mutant kinases (313 kinase panel) (Homo sapiens, UniProt Q9NRM7); conditions: kinase LATS2; compound at 1 μM
T2 sequence (Q9NRM7 1-1088): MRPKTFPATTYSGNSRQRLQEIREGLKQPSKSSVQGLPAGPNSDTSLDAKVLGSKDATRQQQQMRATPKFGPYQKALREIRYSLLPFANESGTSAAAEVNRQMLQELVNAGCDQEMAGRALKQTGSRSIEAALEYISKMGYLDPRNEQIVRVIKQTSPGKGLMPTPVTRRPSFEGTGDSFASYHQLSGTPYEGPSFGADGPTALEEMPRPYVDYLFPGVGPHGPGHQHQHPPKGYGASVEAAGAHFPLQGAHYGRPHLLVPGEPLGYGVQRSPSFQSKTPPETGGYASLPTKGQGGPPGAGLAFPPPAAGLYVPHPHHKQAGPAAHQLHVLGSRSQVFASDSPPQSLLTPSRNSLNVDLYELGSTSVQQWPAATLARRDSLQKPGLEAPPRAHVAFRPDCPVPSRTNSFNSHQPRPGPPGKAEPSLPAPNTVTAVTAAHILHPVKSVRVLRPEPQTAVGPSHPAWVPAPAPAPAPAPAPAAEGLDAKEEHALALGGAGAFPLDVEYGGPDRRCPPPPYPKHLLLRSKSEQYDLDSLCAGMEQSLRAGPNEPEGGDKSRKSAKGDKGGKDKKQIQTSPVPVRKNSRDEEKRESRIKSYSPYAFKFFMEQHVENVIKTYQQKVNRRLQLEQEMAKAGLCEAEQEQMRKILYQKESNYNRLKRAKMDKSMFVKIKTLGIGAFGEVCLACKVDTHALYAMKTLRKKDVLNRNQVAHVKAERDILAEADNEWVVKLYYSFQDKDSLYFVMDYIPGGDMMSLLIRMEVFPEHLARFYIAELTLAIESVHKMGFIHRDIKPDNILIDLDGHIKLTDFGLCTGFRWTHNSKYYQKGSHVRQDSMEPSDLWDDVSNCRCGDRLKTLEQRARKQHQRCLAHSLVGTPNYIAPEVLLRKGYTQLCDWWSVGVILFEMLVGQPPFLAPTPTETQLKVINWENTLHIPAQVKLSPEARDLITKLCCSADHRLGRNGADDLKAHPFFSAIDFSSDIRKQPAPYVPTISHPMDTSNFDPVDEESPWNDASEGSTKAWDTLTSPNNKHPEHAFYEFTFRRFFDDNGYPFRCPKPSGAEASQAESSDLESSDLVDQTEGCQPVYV

panel of more than 300 wild-type and mutant kinases (313 kinase panel) (Homo sapiens, UniProt P19784), sequence (P19784 whole entry, change not shown): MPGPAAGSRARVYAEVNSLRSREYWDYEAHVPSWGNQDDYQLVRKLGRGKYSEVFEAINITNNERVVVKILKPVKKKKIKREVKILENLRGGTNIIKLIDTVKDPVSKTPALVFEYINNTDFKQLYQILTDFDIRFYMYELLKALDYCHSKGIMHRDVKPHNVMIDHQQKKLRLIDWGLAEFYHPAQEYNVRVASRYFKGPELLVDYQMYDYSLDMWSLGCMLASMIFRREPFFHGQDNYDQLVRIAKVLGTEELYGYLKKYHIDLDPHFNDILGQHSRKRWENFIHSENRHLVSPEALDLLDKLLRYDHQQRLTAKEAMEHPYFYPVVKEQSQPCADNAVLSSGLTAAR
panel of more than 300 wild-type and mutant kinases (313 kinase panel) (Homo sapiens, UniProt P41240), sequence (P41240 whole entry, change not shown): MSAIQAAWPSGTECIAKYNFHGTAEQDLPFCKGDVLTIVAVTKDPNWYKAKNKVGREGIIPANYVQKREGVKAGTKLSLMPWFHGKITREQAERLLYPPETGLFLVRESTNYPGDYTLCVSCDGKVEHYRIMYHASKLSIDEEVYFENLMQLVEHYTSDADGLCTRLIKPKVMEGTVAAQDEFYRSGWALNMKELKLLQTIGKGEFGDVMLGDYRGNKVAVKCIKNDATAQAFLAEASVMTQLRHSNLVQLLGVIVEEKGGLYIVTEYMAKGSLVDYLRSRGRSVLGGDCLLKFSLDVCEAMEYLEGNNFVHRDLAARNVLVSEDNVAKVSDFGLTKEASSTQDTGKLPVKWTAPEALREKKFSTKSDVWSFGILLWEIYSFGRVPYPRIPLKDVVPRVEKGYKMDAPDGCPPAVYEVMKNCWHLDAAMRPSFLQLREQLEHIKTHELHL
panel of more than 300 wild-type and mutant kinases (313 kinase panel) (Homo sapiens, UniProt P07949), sequence (P07949 29-1114, stated change not applied): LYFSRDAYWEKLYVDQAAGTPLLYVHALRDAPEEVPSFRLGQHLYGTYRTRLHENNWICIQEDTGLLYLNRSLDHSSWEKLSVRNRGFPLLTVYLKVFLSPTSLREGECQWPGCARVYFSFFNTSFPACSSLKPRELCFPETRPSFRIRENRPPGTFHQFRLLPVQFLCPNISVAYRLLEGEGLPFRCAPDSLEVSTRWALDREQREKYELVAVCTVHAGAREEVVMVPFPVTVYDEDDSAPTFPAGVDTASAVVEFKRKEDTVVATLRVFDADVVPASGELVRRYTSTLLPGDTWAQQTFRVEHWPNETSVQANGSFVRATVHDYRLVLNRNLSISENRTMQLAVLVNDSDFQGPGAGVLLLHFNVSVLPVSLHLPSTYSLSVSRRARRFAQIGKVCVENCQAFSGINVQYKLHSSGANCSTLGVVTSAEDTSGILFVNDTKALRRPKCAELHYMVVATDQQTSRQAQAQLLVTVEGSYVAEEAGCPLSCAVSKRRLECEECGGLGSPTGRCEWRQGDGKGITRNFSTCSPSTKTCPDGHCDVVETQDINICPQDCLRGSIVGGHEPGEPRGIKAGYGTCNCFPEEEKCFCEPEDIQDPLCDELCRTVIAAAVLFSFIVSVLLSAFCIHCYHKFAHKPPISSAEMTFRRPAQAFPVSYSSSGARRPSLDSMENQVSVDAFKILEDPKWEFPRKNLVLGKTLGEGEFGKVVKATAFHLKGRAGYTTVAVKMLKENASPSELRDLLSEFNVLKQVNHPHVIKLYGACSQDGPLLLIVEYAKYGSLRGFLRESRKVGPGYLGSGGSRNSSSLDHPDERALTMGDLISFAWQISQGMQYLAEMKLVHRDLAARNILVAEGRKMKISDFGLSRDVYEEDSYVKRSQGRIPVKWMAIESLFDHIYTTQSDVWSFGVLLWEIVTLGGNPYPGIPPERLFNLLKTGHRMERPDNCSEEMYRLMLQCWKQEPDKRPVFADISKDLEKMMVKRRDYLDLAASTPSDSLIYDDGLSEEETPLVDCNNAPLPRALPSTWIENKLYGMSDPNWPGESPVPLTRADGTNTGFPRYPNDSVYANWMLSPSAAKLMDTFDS
panel of more than 300 wild-type and mutant kinases (313 kinase panel) (Homo sapiens, UniProt P16234, T674I), sequence (P16234 24-1089 T674I): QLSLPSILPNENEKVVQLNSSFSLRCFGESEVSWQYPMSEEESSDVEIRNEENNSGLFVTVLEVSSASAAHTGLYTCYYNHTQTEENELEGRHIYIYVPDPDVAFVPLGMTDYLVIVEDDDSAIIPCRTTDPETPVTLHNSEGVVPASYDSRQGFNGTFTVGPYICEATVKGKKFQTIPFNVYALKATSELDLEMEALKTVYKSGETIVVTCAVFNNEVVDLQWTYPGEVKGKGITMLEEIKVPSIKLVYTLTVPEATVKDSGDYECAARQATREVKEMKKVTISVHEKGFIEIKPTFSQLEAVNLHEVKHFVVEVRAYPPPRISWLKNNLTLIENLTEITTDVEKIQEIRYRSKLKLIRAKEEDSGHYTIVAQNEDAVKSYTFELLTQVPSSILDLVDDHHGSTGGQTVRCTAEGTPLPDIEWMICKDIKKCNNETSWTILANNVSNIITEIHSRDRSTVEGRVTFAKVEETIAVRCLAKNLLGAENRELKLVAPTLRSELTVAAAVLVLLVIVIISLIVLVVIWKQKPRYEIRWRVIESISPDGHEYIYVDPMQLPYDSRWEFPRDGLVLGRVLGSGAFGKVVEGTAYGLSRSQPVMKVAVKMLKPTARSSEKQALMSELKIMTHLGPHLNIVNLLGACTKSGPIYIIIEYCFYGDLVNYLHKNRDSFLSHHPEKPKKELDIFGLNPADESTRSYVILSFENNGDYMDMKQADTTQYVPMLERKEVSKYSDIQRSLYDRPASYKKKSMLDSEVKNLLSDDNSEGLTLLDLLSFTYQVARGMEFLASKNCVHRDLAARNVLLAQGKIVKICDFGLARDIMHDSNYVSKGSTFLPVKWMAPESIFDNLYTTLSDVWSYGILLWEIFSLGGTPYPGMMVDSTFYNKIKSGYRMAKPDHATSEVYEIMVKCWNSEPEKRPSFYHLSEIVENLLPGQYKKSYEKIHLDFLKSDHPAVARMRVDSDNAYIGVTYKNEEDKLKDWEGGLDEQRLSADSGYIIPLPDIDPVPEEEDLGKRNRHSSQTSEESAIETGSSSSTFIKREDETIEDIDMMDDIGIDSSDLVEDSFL
panel of more than 300 wild-type and mutant kinases (313 kinase panel) (Homo sapiens, UniProt P50613), sequence (P50613 whole entry, change not shown): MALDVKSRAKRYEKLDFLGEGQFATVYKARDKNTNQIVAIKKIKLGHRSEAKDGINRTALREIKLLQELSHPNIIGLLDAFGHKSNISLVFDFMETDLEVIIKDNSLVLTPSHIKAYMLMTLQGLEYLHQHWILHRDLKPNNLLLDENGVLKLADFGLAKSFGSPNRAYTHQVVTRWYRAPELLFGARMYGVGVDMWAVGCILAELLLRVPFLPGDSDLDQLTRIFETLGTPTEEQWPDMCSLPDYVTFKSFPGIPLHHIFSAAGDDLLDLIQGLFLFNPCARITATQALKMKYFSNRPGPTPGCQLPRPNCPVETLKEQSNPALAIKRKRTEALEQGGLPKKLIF

CO[C@H]1C[C@@H]2CC[C@@H](C)[C@@](O)(O2)C(=O)C(=O)N2CCCC[C@H]2C(=O)O[C@H]([C@H](C)C[C@@H]2CC[C@@H](OC(=O)C(C)(CO)CO)[C@H](OC)C2)CC(=O)[C@H](C)/C=C(\C)[C@@H](O)[C@@H](OC)C(=O)[C@H](C)C[C@H](C)/C=C/C=C/C=C/1C [temsirolimus]
%-inhibition of MOS [1]: -1.43% | %-inhibition of TRKA ([2]; kinase TRKA, 1 μM): -3.53% | %-inhibition of FMS ([3]; kinase FMS, compound at 1 μM): -1.41% | %-inhibition of RET ([4]; kinase RET, 1 μM): -3% | %-inhibition of PDGFRα(T674I) ([5]; kinase PDGFRα(T674I), 1 μM): -2.73% | %-inhibition of PKCα [6]: -6% | %-inhibition of FLT1 [7]: -2% | %-inhibition, CK2α2/β ([8]; kinase CK2α2/β, 1 μM compound): -5.28% | %-inhibition of FGFR2 ([9]; kinase FGFR2, compound at 1 μM): -9% | %-inhibition of CSK ([10]; kinase CSK, compound at 1 μM): -1.56% | %-inhibition, CDK7/CycH/MAT1 [11]: -8% | %-inhibition of LATS2 [12]: -4.56%

CNC(=O)c1cc(Oc2ccc(NC(=O)Nc3ccc(Cl)c(C(F)(F)F)c3)c(F)c2)ccn1 [regorafenib]
%-inhibition of MOS [1]: 0.399% | %-inhibition of TRKA ([2]; kinase TRKA, 1 μM): 90% | %-inhibition of FMS ([3]; kinase FMS, compound at 1 μM): 92% | %-inhibition of RET ([4]; 1 µM): 102% | %-inhibition of PDGFRα(T674I) ([5]; kinase PDGFRα(T674I), 1 μM): 92% | %-inhibition of PKCα [6]: -11% | %-inhibition of FLT1 [7]: 102% | %-inhibition, CK2α2/β ([8]; kinase CK2α2/β, 1 μM compound): -5.46% | %-inhibition of FGFR2 ([9]; kinase FGFR2, compound at 1 μM): 103% | %-inhibition of CSK ([10]; kinase CSK, compound at 1 μM): 28% | %-inhibition, CDK7/CycH/MAT1 [11]: -3% | %-inhibition of LATS2 [12]: -9.47%

CO[C@H]1C[C@@H]2CC[C@@H](C)[C@@](O)(O2)C(=O)C(=O)N2CCCC[C@H]2C(=O)O[C@H]([C@H](C)C[C@@H]2CC[C@@H](OCCO)[C@H](OC)C2)CC(=O)[C@H](C)/C=C(\C)[C@@H](O)[C@@H](OC)C(=O)[C@H](C)C[C@H](C)/C=C/C=C/C=C/1C [everolimus]
%-inhibition of MOS [1]: 3.3% | %-inhibition of TRKA ([2]; kinase TRKA, 1 μM): -3.53% | %-inhibition of FMS ([3]; kinase FMS, compound at 1 μM): -2.3% | %-inhibition of RET ([4]; kinase RET, 1 μM): -4% | %-inhibition of PDGFRα(T674I) ([5]; kinase PDGFRα(T674I), 1 μM): 0.248% | %-inhibition of PKCα [6]: -11% | %-inhibition of FLT1 [7]: -2.63% | %-inhibition, CK2α2/β ([8]; kinase CK2α2/β, 1 μM compound): -1.28% | %-inhibition of FGFR2 ([9]; kinase FGFR2, compound at 1 μM): -10% | %-inhibition of CSK ([10]; kinase CSK, compound at 1 μM): -7% | %-inhibition, CDK7/CycH/MAT1 [11]: -6% | %-inhibition of LATS2 [12]: -13%

CCCS(=O)(=O)Nc1ccc(F)c(C(=O)c2c[nH]c3ncc(-c4ccc(Cl)cc4)cc23)c1F [vemurafenib]
%-inhibition of MOS [1]: 10% | %-inhibition of TRKA ([2]; kinase TRKA, 1 μM): 16% | %-inhibition of FMS ([3]; kinase FMS, compound at 1 μM): 6% | %-inhibition of RET ([4]; kinase RET, 1 μM): 32% | %-inhibition of PDGFRα(T674I) ([5]; kinase PDGFRα(T674I), 1 μM): 1.49% | %-inhibition of PKCα [6]: -3.61% | %-inhibition of FLT1 [7]: 25% | %-inhibition, CK2α2/β ([8]; kinase CK2α2/β, 1 μM compound): -6.56% | %-inhibition of FGFR2 ([9]; kinase FGFR2, compound at 1 μM): 10% | %-inhibition of CSK ([10]; kinase CSK, compound at 1 μM): 76% | %-inhibition, CDK7/CycH/MAT1 [11]: 0.137% | %-inhibition of LATS2 [12]: -2.28%

O=S(=O)(c1cccc2cnccc12)N1CCCNCC1 [fasudil]
%-inhibition of MOS [1]: -24% | %-inhibition of TRKA ([2]; kinase TRKA, 1 μM): -2.44% | %-inhibition of FMS ([3]; kinase FMS, compound at 1 μM): -3% | %-inhibition of RET ([4]; kinase RET, 1 μM): -5% | %-inhibition of PDGFRα(T674I) ([5]; kinase PDGFRα(T674I), 1 μM): 21% | %-inhibition of FLT1 [7]: -0.73% | %-inhibition, CK2α2/β ([8]; kinase CK2α2/β, 1 μM compound): -3.75% | %-inhibition of FGFR2 ([9]; kinase FGFR2, compound at 1 μM): -1.76% | %-inhibition of CSK ([10]; kinase CSK, compound at 1 μM): -3.28% | %-inhibition, CDK7/CycH/MAT1 [11]: 7.49% | %-inhibition of LATS2 [12]: 22%

CS(=O)(=O)CCNCc1ccc(-c2ccc3ncnc(Nc4ccc(OCc5cccc(F)c5)c(Cl)c4)c3c2)o1 [lapatinib]
%-inhibition of MOS [1]: 4.31% | %-inhibition of TRKA ([2]; kinase TRKA, 1 μM): 5.64% | %-inhibition of FMS ([3]; kinase FMS, compound at 1 μM): -5.46% | %-inhibition of RET ([4]; 1 µM): -0.304% | %-inhibition of PDGFRα(T674I) ([5]; 1 µM): 18% | %-inhibition of PKCα [6]: 1% | %-inhibition, CK2α2/β ([8]; kinase CK2α2/β, 1 μM compound): -3.45% | %-inhibition of FGFR2 ([9]; 1 µM): 0.434% | %-inhibition of CSK ([10]; 1 µM): 1.88% | %-inhibition, CDK7/CycH/MAT1 [11]: 2% | %-inhibition of LATS2 [12]: -8%

Cc1cn(-c2cc(NC(=O)c3ccc(C)c(Nc4nccc(-c5cccnc5)n4)c3)cc(C(F)(F)F)c2)cn1 [nilotinib]
%-inhibition of MOS [1]: -3.64% | %-inhibition of TRKA ([2]; 1 µM): 41% | %-inhibition of FMS ([3]; 1 µM): 52% | %-inhibition of RET ([4]; 1 µM): 31% | %-inhibition of PDGFRα(T674I) ([5]; 1 µM): 45% | %-inhibition of PKCα [6]: 6.55% | %-inhibition of FLT1 [7]: 32% | %-inhibition, CK2α2/β ([8]; 1 µM): -4.26% | %-inhibition of FGFR2 ([9]; 1 µM): -67% | %-inhibition of CSK ([10]; 1 µM): 78% | %-inhibition, CDK7/CycH/MAT1 [11]: -2.34% | %-inhibition of LATS2 [12]: -72%

COc1cc(Nc2c(C#N)cnc3cc(OCCCN4CCN(C)CC4)c(OC)cc23)c(Cl)cc1Cl [bosutinib]
%-inhibition of MOS [1]: 44% | %-inhibition of TRKA ([2]; kinase TRKA, 1 μM): 88% | %-inhibition of FMS ([3]; kinase FMS, compound at 1 μM): 93% | %-inhibition of RET ([4]; kinase RET, 1 μM): 95% | %-inhibition of PDGFRα(T674I) ([5]; kinase PDGFRα(T674I), 1 μM): 57% | %-inhibition of PKCα [6]: 54% | %-inhibition of CSK ([10]; kinase CSK, compound at 1 μM): 84% | %-inhibition, CDK7/CycH/MAT1 [11]: -4.35% | %-inhibition of LATS2 [12]: 28%

CC(=O)Nc1cccc(-n2c(=O)n(C3CC3)c(=O)c3c(Nc4ccc(I)cc4F)n(C)c(=O)c(C)c32)c1 [trametinib]
%-inhibition of MOS [1]: 42% | %-inhibition of TRKA ([2]; kinase TRKA, 1 μM): -1.17% | %-inhibition of FMS ([3]; kinase FMS, compound at 1 μM): -4% | %-inhibition of RET ([4]; kinase RET, 1 μM): -8% | %-inhibition of PDGFRα(T674I) ([5]; kinase PDGFRα(T674I), 1 μM): -0.248% | %-inhibition of PKCα [6]: -5% | %-inhibition of FLT1 [7]: -2.75% | %-inhibition, CK2α2/β ([8]; kinase CK2α2/β, 1 μM compound): -5.29% | %-inhibition of FGFR2 ([9]; kinase FGFR2, compound at 1 μM): -2.64% | %-inhibition of CSK ([10]; kinase CSK, compound at 1 μM): -2.83% | %-inhibition, CDK7/CycH/MAT1 [11]: -6% | %-inhibition of LATS2 [12]: 1.87%
